Counter-ions that a name gives are not always drawn. One block for each compound: values may come before it.
Key:
[1] = target: full-length DNMT1 (Homo sapiens, UniProt P26358); test: radioactive scintillation proximity assay; assay type: biochemical
[2] = system: Dnmt1; settings: murine pre-implantation Dnmt3a/3b knockout embryos; ref Haggerty et al., 2021; cited from earlier work
[3] = system: mouse embryonic stem cells; settings: ref Portilho et al., 2021; cited from earlier work
[4] = system: cancer cell; settings: in vitro; ref Pappalardi et al., 2021; cited from earlier work
[5] = system: acute myeloid leukemia; settings: mouse models of acute myeloid leukemia; ref Pappalardi et al., 2021; cited from earlier work
[6] = system: more than 300 protein kinases and 30 other methyltransferases (MTases), including DNMT3a and 3b; settings: ref Pappalardi et al., 2021; cited from earlier work

Chain of full-length DNMT1 (P26358 whole entry): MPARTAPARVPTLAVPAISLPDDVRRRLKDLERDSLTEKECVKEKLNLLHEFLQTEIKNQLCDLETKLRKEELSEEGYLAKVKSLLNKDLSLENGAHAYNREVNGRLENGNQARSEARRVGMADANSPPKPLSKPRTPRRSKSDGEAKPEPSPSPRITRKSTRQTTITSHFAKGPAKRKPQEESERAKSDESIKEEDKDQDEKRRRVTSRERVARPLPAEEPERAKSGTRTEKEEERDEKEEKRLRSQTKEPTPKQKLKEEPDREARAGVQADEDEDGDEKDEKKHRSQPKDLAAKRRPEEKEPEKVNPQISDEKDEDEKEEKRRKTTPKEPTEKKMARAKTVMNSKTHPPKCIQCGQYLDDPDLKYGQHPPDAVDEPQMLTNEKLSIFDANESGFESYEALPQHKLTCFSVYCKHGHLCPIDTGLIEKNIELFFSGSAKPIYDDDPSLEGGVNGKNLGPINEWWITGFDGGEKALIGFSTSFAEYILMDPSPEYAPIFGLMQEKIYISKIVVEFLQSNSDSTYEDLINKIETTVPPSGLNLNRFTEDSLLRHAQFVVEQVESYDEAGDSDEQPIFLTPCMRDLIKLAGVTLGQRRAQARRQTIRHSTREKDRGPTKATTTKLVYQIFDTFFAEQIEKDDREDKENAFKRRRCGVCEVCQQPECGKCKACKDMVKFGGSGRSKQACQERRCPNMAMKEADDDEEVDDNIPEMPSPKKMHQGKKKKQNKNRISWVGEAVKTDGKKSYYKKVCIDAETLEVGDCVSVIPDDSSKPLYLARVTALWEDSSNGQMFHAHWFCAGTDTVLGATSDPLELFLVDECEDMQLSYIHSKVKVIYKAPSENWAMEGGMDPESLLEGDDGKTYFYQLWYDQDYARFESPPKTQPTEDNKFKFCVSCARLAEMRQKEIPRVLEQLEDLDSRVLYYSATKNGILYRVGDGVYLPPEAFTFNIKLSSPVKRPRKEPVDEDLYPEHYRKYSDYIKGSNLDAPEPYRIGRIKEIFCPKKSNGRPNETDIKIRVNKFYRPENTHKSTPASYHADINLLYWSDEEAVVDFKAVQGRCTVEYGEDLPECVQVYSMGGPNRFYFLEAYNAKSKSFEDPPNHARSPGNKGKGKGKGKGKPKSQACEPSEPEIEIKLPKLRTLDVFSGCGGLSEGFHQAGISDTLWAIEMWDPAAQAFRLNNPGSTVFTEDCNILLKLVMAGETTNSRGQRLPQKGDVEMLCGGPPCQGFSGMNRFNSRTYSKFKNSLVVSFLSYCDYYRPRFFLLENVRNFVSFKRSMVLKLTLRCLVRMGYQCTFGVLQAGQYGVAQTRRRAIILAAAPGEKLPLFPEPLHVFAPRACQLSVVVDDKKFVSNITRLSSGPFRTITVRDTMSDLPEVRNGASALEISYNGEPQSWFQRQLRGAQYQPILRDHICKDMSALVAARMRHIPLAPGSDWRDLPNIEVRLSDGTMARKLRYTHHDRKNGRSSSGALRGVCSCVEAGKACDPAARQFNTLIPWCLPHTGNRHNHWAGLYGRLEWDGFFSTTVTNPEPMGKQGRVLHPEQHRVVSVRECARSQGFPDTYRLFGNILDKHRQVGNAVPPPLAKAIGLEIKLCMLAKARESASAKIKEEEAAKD

Structure (SMILES): CCc1c(C#N)c(SC(C(N)=O)c2ccc(C(F)(F)F)cc2)nc(N2CCC(N)CC2)c1C#N (stereo not shown) [GSK3852279, 2-((6-(4-aminopiperidin-1-yl)-3,5-dicyano-4-ethylpyridin-2-yl)thio)-2-(4-(trifluoromethyl)phenyl)acetamide trifluoroacetate]
- IC50 [1]: 0.03 to 0.06 µM

Structure (SMILES): CCc1c(C#N)c(SC(C(N)=O)c2ccccc2)nc(N(C)C)c1C#N (stereo not shown) [GSK3484862]
- inhibition of Dnmt1 [2]: inhibits Dnmt1
- demethylation [3]: demethylation in mouse embryonic stem cells, in a level similar to that observed with Dnmt1 knockouts
- non-specific toxicity [3]: minimal non-specific toxicity

Structure (SMILES): CCc1c(C#N)c(SC(C(N)=O)c2ccccc2)nc(N2CCC(N)CC2)c1C#N (stereo not shown) [GSK3685032]
- inhibition of cancer cell growth [4]: inhibits cancer cell growth
- tumor regression and survival compared with decitabine (Dacogen) [5]: superior to decitabine
- selectivity for DNMT1 [6]: selective for DNMT1 over more than 300 protein kinases and 30 other methyltransferases

Structure (SMILES): CCc1c(C#N)c(N[C@@H](C(N)=O)c2ccccc2)nc(N2CCC(N)CC2)c1C#N [GSK3830334, (R)-2-((6-(4-aminopiperidin-1-yl)-3,5-dicyano-4-ethylpyridin-2-yl)amino)-2-phenylacetamide]
- reduced potency relative to the ~30-60 nM compounds ([1]; full-length DNMT1, 40-mer hemimethylated DNA duplex, radioactive SPA): 3-6 fold

Further lines, results first:

- IC50 [1]: 0.03 to 0.06 µM
Structure (SMILES): CCc1c(C#N)c(SCc2ccc(CNC(=O)CN)cc2)nc(N2CCCN(C)CC2)c1C#N [GSK3735967, 2-amino-N-(4-(((3,5-dicyano-4-ethyl-6-(4-methyl-1,4-diazepan-1-yl)pyridin-2-yl)thio)methyl)benzyl)acetamide]

- IC50 [1]: 0.03 to 0.06 µM
Structure (SMILES): CCc1c(C#N)c(SC(C(N)=O)c2ccccc2)nc(N2CCCN(CCO)CC2)c1C#N (stereo not shown) [GSK3543105, 2-((3,5-dicyano-4-ethyl-6-(4-(2-hydroxyethyl)-1,4-diazepan-1-yl)pyridin-2-yl)thio)-2-phenylacetamide]
